Earlier results as cited in patent US20050063990A1, “Compositons and methods for weight loss” (priority 2003, published 2005).

What was measured:
[1] = animal studies (mice fed CLA)

conjugated linoleic acid [CLA]
increase in use of fat as fuel (energy expenditure) [1]: 74%
abdominal fat (men classified as abdominally obese): decrease abdominal fat
total fat mass (overweight and obese humans): reduces total fat mass
